Earlier results on 3 compounds are cited in US20080317725A1, “COMPOSITIONS AND METHODS OF TREATING CHRONIC KIDNEY DISEASE” (priority 2007, published 2008).

The subject of data set [1] is subjects undergoing dialysis. To be noted: vitamin A intake of about 15,000 IU.
The conditions of data set [2]: administered in large doses.
Data set [3] concerns humans.

Consider vitamin A, for which the “toxicity of vitamin A intake” value in data set [1] is “produce vitamin A toxicity and correlate with hypercalcaemia”.

On to `CC(=O)N[C@@H](CS)C(=O)O` [NAC, N-acetyl cysteine], for which the side effect result in data set [2] was “cause nausea”.

On to `C=C1CC[C@H](O)C/C1=C/C=C1\CCC[C@]2(C)[C@@H]([C@H](C)/C=C/[C@H](C)C(C)C)CC[C@@H]12` [vitamin D2, ergocalciferol], for which, in data set [3], the “vitamin D activity in humans relative to vitamin D3” value was “about 1.7 times less than D3”.
